Data on 14 compounds can be found in patent publication EP4667464A1 (Cyrus Therapeutics Inc., priority 2023, dated 2024).

pIC50: −log10 of the molar value. Read-outs that look alike come from different tables or passages of the source. A value given as a limit tells only on which side of the number the result lay.

Assay [1] deals with T1, SOS1 (Homo sapiens, UniProt Q07889).
T1 construct: HIS-SOS1cat (160 nM; Cytoskeleton, US); His (N); purchased Cytoskeleton
T1 sequence (Q07889 564-1049 limits assumed): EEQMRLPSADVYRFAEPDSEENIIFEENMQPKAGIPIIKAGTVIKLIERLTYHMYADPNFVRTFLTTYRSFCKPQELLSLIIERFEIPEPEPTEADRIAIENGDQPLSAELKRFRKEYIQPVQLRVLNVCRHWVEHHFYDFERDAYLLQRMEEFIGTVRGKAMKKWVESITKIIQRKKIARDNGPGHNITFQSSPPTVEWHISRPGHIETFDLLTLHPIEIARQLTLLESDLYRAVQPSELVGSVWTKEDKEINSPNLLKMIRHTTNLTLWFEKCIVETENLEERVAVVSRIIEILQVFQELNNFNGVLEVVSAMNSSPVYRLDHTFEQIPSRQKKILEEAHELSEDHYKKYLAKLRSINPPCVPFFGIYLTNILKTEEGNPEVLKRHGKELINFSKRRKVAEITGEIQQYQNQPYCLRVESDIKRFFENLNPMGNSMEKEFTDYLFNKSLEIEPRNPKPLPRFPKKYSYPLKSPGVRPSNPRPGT
In words: SOS-catalyzed nucleotide exchange assay (HTRF, SOS1-mediated GTP loading of KRAS G12D). It is filed as biochemical. The protocol: SOS1 activity was measured by SOS1-mediated GTP loading quantification of KRAS^G12D. GTP loaded KRAS^G12D was detected by HTRF (Homogeneous Time Resolved Fluorescence) using anti-GST terbium (Cisbio, France) as a donor and a fluorescence GTP analogue (EDA-GTP-DY-647P1, [DY-647P1 labeled 2'/3'-O-(2-aminoethyl-carbamoyl)guanosine-5'-triphosphate (Jena bioscience, Germany)]) as an acceptor.
KRAS^G12D working solution was prepared by adding equal amounts of GST-KRAS^G12D (100 nM) and anti-GST-terbium (2 nM; Cisbio, France) to the assay buffer and culturing on ice for 10 minutes. […] Control solution was prepared by adding equal volumes of EDA-GTP-DY-647P1 and the assay buffer for normalization control to exclude GEF-independent GTP loading and background signals.
10 uL of the KRAS^G12D solution was added to each well and incubated for 30 minutes at room temperature while shaking. HTRF was measured using a Thermo Varioskan (excitation 334 nm, emission 665 nm). The IC50 of each inhibitor was analyzed using Graphad Prism.
On the technique in general: Time-resolved FRET reads energy transfer from a long-lived donor to a nearby acceptor.

The target of assay [2] is T2, KRAS G12C::SOS1 (Homo sapiens, UniProt Q07889).
T2 construct: purchased CISBIO 64KRASG12PEH
T2 sequence (Q07889 1-1333): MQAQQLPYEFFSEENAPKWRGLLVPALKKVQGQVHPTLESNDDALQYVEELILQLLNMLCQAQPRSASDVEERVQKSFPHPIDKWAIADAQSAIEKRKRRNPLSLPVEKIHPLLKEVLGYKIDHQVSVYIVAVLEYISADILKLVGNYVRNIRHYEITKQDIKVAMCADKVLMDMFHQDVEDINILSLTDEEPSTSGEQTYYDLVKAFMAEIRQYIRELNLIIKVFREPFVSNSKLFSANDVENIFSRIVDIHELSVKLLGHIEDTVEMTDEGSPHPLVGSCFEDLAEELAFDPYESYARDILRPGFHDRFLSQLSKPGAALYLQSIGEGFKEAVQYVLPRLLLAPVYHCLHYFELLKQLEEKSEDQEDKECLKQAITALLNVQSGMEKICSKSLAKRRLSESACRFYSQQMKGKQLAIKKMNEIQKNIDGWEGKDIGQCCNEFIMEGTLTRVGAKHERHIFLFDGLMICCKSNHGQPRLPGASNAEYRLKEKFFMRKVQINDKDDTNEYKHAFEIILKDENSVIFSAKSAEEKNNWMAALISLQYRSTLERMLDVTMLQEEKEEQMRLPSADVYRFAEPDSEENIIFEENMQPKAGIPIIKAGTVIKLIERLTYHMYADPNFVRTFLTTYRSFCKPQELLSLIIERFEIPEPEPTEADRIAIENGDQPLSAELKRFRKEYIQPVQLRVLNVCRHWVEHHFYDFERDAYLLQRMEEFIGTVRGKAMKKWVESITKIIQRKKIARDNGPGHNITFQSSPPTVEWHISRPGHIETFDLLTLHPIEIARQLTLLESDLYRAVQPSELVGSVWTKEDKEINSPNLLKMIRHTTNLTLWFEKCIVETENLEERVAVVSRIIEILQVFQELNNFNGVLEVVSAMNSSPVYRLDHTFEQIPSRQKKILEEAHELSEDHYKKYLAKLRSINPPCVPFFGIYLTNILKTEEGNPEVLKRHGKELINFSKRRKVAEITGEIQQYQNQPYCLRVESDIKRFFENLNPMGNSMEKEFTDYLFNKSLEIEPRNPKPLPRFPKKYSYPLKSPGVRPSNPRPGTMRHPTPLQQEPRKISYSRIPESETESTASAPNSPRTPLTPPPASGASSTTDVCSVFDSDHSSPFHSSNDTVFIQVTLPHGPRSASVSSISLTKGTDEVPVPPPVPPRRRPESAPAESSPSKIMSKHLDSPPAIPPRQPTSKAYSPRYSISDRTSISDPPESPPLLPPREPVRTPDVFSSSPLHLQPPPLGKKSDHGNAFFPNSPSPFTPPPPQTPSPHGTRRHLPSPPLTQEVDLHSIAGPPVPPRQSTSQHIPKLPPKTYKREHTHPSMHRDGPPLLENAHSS
The assay can be described thus: KRAS G12C::SOS1 protein-protein interaction (PPI) inhibition assay (HTRF). The format is binding. The protocol:
Protein-protein interaction between SOS1 and KRAS^G12c was detected using KRAS G12C/SOS1 binding kit from CISBIO (64KRASG12PEH, CISBIO, FRANCE) according to the manufacturer's assay method. Briefly, the maximum concentration of an inhibitor sample was set to be 3 µM, and the inhibitor sample was diluted 7 times by 1/3, and samples having a total of 8 concentrations were prepared. In HTRF (Homogeneous Time-Resolved Fluorescence) exclusive 96-well low-volume white plate (66PL96005, CISBIO, FRANCE), 2 µL of an inhibitor sample prepared for each concentration, 5 µL of a mixed solution of Tag1 labeled KRAS^G12c protein and GTP diluted with the dilution solution provided by the manufacturer, and 5 µL of Tag2 labeled SOS1 protein were mixed, and added with 8 µL of a diluted solution where anti-Tag1 KRAS^G12C XL665 (HTRF acceptor) labeled antibody and anti-Tag2 SOS1 Terbium cryptate (HTRF donor) labeled antibody were mixed in an equal ratio and cultured at room temperature for 2 h.

Setting [3] is: GST-KRAS G12D, HIS-SOS1cat, compound 128 pM to 10 µM, read-out: SOS-catalyzed nucleotide exchange assay.
The mark [4] stands for this setting: 8 concentrations from 3 µM, three replicates, read-out: KRAS G12C::SOS1 PPI.

Regarding `C[C@@H](NC(=O)c1cc(Cl)c(=O)n(-c2cncc(-c3c(Cl)nnn3C)c2)n1)c1cccc(C(F)F)c1F` [Example 12, N-{(R)-1-[3-(difluoromethyl)-2-fluorophenyl]ethyl}-5-chloro-1-[5-(4-chloro-1-methyl-1H-1,2,3-triazol-5-yl)-3-pyridyl]-6-oxo-1,6-dihydropyridazine-3-carboxamide], the values for the pIC50 in assay [1] (setting [3]) and in assay [2] (setting [4]) were 6.82 to 7.30 and less than 6.82, respectively.
On the same counts, the results for `COC(=O)N1CC(n2nncc2-c2cncc(-n3nc(C(=O)N[C@H](C)c4cccc(C(F)(F)F)c4F)ccc3=O)c2)C1` [Example 20-11, methyl (R)-3-(5-(5-(3-((1-(2-fluoro-3-(trifluoromethyl)phenyl)ethyl)carbamoyl)-6-oxopyridazin-1(6H)-yl)pyridin-3-yl)-1H-1,2,3-triazol-1-yl)azetidine-1-carboxylate] are more than 7.30 and more than 7.30.
On the same counts, the results for `C[C@@H](NC(=O)c1cc(F)c(=O)n(-c2cncc(-c3cnnn3C)c2)c1)c1cccc(C(F)(F)F)c1F` [Example 1-30, (R)-3-fluoro-N-(1-(2-fluoro-3-(trifluoromethyl)phenyl)ethyl)-5'-(1-methyl-1H-1,2,3-triazol-5-yl)-2-oxo-2H-[1,3'-bipyridine]-5-carboxamide] are less than 6.82 and less than 6.82.
On the same counts, the results for `C[C@H](O)c1cc(C(=O)N[C@H](C)c2cccc(C(F)(F)F)c2F)nn(-c2cncc(-c3cnnn3C)c2)c1=O` (single isomer, unassigned) [Example 10] are 6.82 to 7.30 and 6.82 to 7.30.
With `[2H][C@](C)(NC(=O)c1ccc(=O)n(-c2cncc(-c3cnnn3C)c2)n1)c1cccc(C(F)(F)F)c1F` [Example 1-34, N-[(1R)-1-deuterio-1-[2-fluoro-3-(trifluoromethyl)phenyl]ethyl]-1-[5-(3-methyltriazol-4-yl)-3-pyridyl]-6-oxo-pyridazine-3-carboxamide], the values for the pIC50 in assay [1] (setting [3]) and in assay [2] (setting [4]) were 6.82 to 7.30 and more than 7.30, respectively.
Consider `C[C@@H](NC(=O)c1ccc(=O)n(-c2cncc(-c3cnnn3C)c2)n1)c1cccc(C(F)(F)CF)c1F` [Example 1-8, (R)-N-(1-(2-fluoro-3-(1,1,2-trifluoroethyl)phenyl)ethyl)-1-(5-(1-methyl-1H-1,2,3-triazol-5-yl)pyridin-3-yl)-6-oxo-1,6-dihydropyridazine-3-carboxamide], for which the figures for the pIC50 in assay [1] (setting [3]) and in assay [2] (setting [4]) were more than 7.30 and 6.82 to 7.30, respectively.
Turning to `C[C@@H](NC(=O)c1ccc(=O)n(-c2cncc(-c3cnnn3[C@@H]3CC3(F)F)c2)n1)c1cccc(C(F)(F)CO)c1F` (single isomer, unassigned) [Example 26], the pIC50 in assay [1] and in assay [2] was more than 7.30 throughout.
On to `CC(C)n1nncc1-c1cncc(-n2nc(C(=O)N[C@H](C)c3cccc(C(F)(F)F)c3F)ccc2=O)c1` [Example 1-49, N-[(1R)-1-[2-fluoro-3-(trifluoromethyl)phenyl]ethyl]-1-[5-(3-isopropyltriazol-4-yl)-3-pyridyl]-6-oxo-pyridazine-3-carboxamide], for which the pIC50 was 6.82 to 7.30 in assay [1] (read-out: SOS-catalyzed nucleotide exchange assay, GST-KRAS G12D, HIS-SOS1cat, compound 128 pM to 10 µM) and more than 7.30 in assay [2] (read-out: KRAS G12C::SOS1 PPI, 8 concentrations from 3 µM, three replicates).
In the case of `CCn1nccc1-c1cncc(-n2nc(C(=O)N[C@H](C)c3cccc(C(F)(F)CO)c3F)ccc2=O)c1` [Example 1-14, N-[(1R)-1-[3-(1,1-difluoro-2-hydroxy-ethyl)-2-fluoro-phenyl]ethyl]-1-[5-(2-ethylpyrazol-3-yl)-3-pyridyl]-6-oxo-pyridazine-3-carboxamide], the pIC50 in assay [1] (setting [3]) and in assay [2] (setting [4]) was less than 6.82 each time.
As for `C[C@@H](NC(=O)c1cc(C#N)c(=O)n(-c2cncc(-c3cnnn3C)c2)n1)c1cccc(C(F)(F)CO)c1F` [Example 3, 5-cyano-N-[(1R)-1-[3-(1,1-difluoro-2-hydroxy-ethyl)-2-fluorophenyl]ethyl]-1-[5-(3-methyltriazol-4-yl)-3-pyridyl]-6-oxo-pyridazine-3-carboxamide], the pIC50 in assay [1] and in assay [2] was less than 6.82 each time.
For `C[C@@H](NC(=O)c1cc(C(C)(C)O)c(=O)n(-c2cncc(-c3cnnn3C)c2)n1)c1cccc(C(F)(F)F)c1F` [Example 1-59, (R)-N-(1-(2-fluoro-3-(trifluoromethyl)phenyl)ethyl)-5-(2-hydroxypropane-2-yl)-1-(5-(1-methyl-1H-1,2,3-triazol-5-yl)pyridin-3-yl)-6-oxo-1,6-dihydropyridazine-3-carboxamide], the pIC50 in assay [1] (setting [3]) is more than 7.30; in assay [2] (setting [4]), 6.82 to 7.30.
The like results for `Cc1cc(C(=O)N[C@H](C)c2cccc(C(F)(F)COS(=O)(=O)c3ccccn3)c2F)nn(-c2cncc(-c3cnnn3C)c2)c1=O` [Example 8, N-[(R)-1-{3-[1,1-difluoro-2-(2-pyridylsulfonyloxy)ethyl]-2-fluorophenyl}ethyl]-5-methyl-1-[5-(1-methyl-1H-1,2,3-triazol-5-yl)-3-pyridyl]-6-oxo-1,6-dihydropyridazine-3-carboxamide] were, in that order, more than 7.30 and more than 7.30.
On the same counts, the results for `C[C@@H](NC(=O)c1ccc(=O)n(-c2cncc(-c3cnnn3CCO)c2)n1)c1cccc(C(F)(F)F)c1F` [Example 11, N-{(R)-1-[2-fluoro-3-(trifluoromethyl)phenyl]ethyl}-1-{5-[1-(2-hydroxyethyl)-1H-1,2,3-triazol-5-yl]-3-pyridyl}-6-oxo-1,6-dihydropyridazine-3-carboxamide] are more than 7.30 and 6.82 to 7.30.
On the same counts, the results for `[2H]c1cc(C(=O)N[C@H](C)c2cccc(C(F)(F)CO)c2F)nn(-c2cncc(-c3cnnn3C3CC3)c2)c1=O` [Example 1-43] are more than 7.30 and more than 7.30.
